Measurements: ChEMBL document CHEMBL3045223, “Synthesis, nematicidal and antimicrobial properties of Bis-[4-methoxy-3-[3-(4-fluorophenyl)-6-(4-methylphenyl)-2(aryl)-tetrahydro-2H-pyrazolo[3,4-d]thiazol-5-yl]phenyl]methanes” (2009)
≈ marks a conversion by molar mass, not a printed value. Calls of active or inactive are those of the source. The calls are words filed in the database; no cut-off is given here.

Columns and labels:
Type in all cases: functional
[1] = test system: Trichophyton mentagrophytes; assay: Antifungal activity against Trichophyton mentagrophytes IFO 40996 assessed as growth inhibition at 37 degC for 48 hr
[2] = test system: Trichophyton rubrum; assay: Antifungal activity against Trichophyton rubrum IFO 9185 assessed as growth inhibition at 37 degC for 48 hr
[3] = test system: Aspergillus fumigatus; assay: Antifungal activity against Aspergillus fumigatus HIC 6094 assessed as growth inhibition at 37 degC for 48 hr
[4] = test system: Candida albicans; assay: Antifungal activity against Candida albicans ATCC 10231 assessed as growth inhibition at 37 degC for 48 hr; conditions: ATCC 10231, 48 h
[5] = test system: Trichophyton mentagrophytes; assay: Antifungal activity against Trichophyton mentagrophytes IFO 40996 assessed as growth inhibition at 300 ug/disc at 37 degC for 48 hr; conditions: IFO 40996, 48 h, read-out: IZ
[6] = test system: Trichophyton rubrum; assay: Antifungal activity against Trichophyton rubrum IFO 9185 assessed as growth inhibition at 300 ug/disk at 37 degC for 48 hr; conditions: IFO 9185, 48 h, read-out: IZ
[7] = test system: Aspergillus fumigatus; assay: Antifungal activity against Aspergillus fumigatus HIC 6094 assessed as growth inhibition at 300 ug/disc at 37 degC for 48 hr; conditions: HIC 6094, 48 h, read-out: IZ
[8] = test system: Candida albicans; assay: Antifungal activity against Candida albicans ATCC 10231 assessed as growth inhibition at 300 ug/disk at 37 degC for 48 hr; conditions: ATCC 10231, 48 h, read-out: IZ
[9] = test system: Chromobacterium violaceum; assay: Antibacterial activity against Chromobacterium violaceum MTCC 2656 assessed as growth arrest at 37 degC for 24 hr; conditions: MTCC 2656, 24 h
[10] = test system: Klebsiella aerogenes; assay: Antibacterial activity against Enterobacter aerogenes MTCC 39 assessed as growth arrest at 37 degC for 24 hr; conditions: MTCC 39, 24 h
[11] = test system: Pseudomonas aeruginosa; assay: Antibacterial activity against Pseudomonas aeruginosa MTCC 741 assessed as growth arrest at 37 degC for 24 hr; conditions: MTCC 741, 24 h
[12] = test system: Staphylococcus aureus; assay: Antibacterial activity against Staphylococcus aureus MTCC 96 assessed as growth arrest at 37 degC for 24 hr; conditions: MTCC 96, 24 h
[13] = test system: Lysinibacillus sphaericus; assay: Antibacterial activity against Lysinibacillus sphaericus MTCC 11 assessed as growth arrest at 37 degC for 24 hr; conditions: MTCC 11, 24 h
[14] = test system: Bacillus subtilis; assay: Antibacterial activity against Bacillus subtilis MTCC 441 assessed as growth arrest at 37 degC for 24 hr; conditions: MTCC 441, 24 h
[15] = test system: Chromobacterium violaceum; assay: Antibacterial activity against Chromobacterium violaceum MTCC 2656 assessed as inhibition zones at 300 ug/disk at 37 degC for 24 hr; conditions: MTCC 2656, 24 h, read-out: IZ
[16] = test system: Klebsiella aerogenes; assay: Antibacterial activity against Enterobacter aerogenes MTCC 39 assessed as inhibition zones at 300 ug/disk at 37 degC for 24 hr; conditions: MTCC 39, 24 h, read-out: IZ
[17] = test system: Pseudomonas aeruginosa; assay: Antibacterial activity against Pseudomonas aeruginosa MTCC 741 assessed as inhibition zones at 300 ug/disk at 37 degC for 24 hr; conditions: MTCC 741, 24 h, read-out: IZ
[18] = test system: Staphylococcus aureus; assay: Antibacterial activity against Staphylococcus aureus MTCC 96 assessed as inhibition zones at 300 ug/disc at 37 degC for 24 hr; conditions: MTCC 96, 24 h, read-out: IZ
[19] = test system: Lysinibacillus sphaericus; assay: Antibacterial activity against Lysinibacillus sphaericus MTCC 11 assessed as inhibition zones at 300 ug/disk at 37 degC for 24 hr; conditions: MTCC 11, 24 h, read-out: IZ
[20] = test system: Bacillus subtilis; assay: Antibacterial activity against Bacillus subtilis MTCC 441 assessed as inhibition zones at 300 ug/disk at 37 degC for 24 hr; conditions: MTCC 441, 24 h, read-out: IZ
[21] = test system: Caenorhabditis elegans; assay: Nematicidal activity against Caenorhabditis elegans assessed as immobility; conditions: read-out: LD50 (the source's name)
[22] = test system: Ditylenchus myceliophagus; assay: Nematicidal activity against Ditylenchus myceliophagus assessed as immobility; conditions: read-out: LD50 (the source's name)

Row | SMILES | MBC [4] | MIC [4] | zone of inhibition at 300 µg/disc [5] | zone of inhibition at 300 µg/disc [6] | zone of inhibition at 300 µg/disc [7] | zone of inhibition at 300 µg/disc [8] | MBC [9] | MIC [9] | MBC [10] | MIC [10] | MBC [11] | MIC [11] | MBC [12] | MIC [12] | MBC [13] | MIC [13] | MBC [14] | MIC [14] | zone of inhibition at 300 µg/disc [15] | zone of inhibition at 300 µg/disc [16] | further results
1 | COc1ccc(Cc2ccc(OC)c(C3SC4C(=NN(Cc5ccccc5)C4c4ccc(F)cc4)N3c3ccc([N+](=O)[O-])cc3)c2)cc1C1SC2C(=NN(Cc3ccccc3)C2c2ccc(F)cc2)N1c1ccc([N+](=O)[O-])cc1 (centres undefined) | 25 µg/mL (≈ 22.9 µM) | 12.5 µg/mL (≈ 11.4 µM) | 13 mm | 11 mm | 16 mm | 19 mm | 12.5 µg/mL (≈ 11.4 µM) | 6.25 µg/mL (≈ 5.72 µM) | 25 µg/mL (≈ 22.9 µM) | 12.5 µg/mL (≈ 11.4 µM) | 50 µg/mL (≈ 45.7 µM) | 12.5 µg/mL (≈ 11.4 µM) | 50 µg/mL (≈ 45.7 µM) | 12.5 µg/mL (≈ 11.4 µM) | 50 µg/mL (≈ 45.7 µM) | 12.5 µg/mL (≈ 11.4 µM) | 12.5 µg/mL (≈ 11.4 µM) | 6.25 µg/mL (≈ 5.72 µM) | 13 mm | 19 mm | MBC [1]: inactive; MIC [1]: inactive; MBC [2]: inactive; MIC [2]: inactive; MBC [3]: inactive; MIC [3]: inactive; zone of inhibition at 300 µg/disc [17]: 10 mm; zone of inhibition at 300 µg/disc [18]: 19 mm; zone of inhibition at 300 µg/disc [19]: 21 mm; zone of inhibition at 300 µg/disc [20]: 15 mm; LC50 [21]: 190 µg/mL (≈ 174 µM); LC50 [22]: 190 µg/mL (≈ 174 µM)
2 | COc1ccc(Cc2ccc(OC)c(C3SC4C(=NN(c5ccc(Cl)cc5)C4c4ccc(F)cc4)N3c3ccc(C)cc3)c2)cc1C1SC2C(=NN(c3ccc(Cl)cc3)C2c2ccc(F)cc2)N1c1ccc(C)cc1 (centres undefined) | 25 µg/mL (≈ 23.3 µM) | 12.5 µg/mL (≈ 11.7 µM) | 10 mm | 11 mm | 11 mm | 13 mm | 25 µg/mL (≈ 23.3 µM) | 12.5 µg/mL (≈ 11.7 µM) | 50 µg/mL (≈ 46.6 µM) | 12.5 µg/mL (≈ 11.7 µM) | 25 µg/mL (≈ 23.3 µM) | 6.25 µg/mL (≈ 5.83 µM) | 25 µg/mL (≈ 23.3 µM) | 12.5 µg/mL (≈ 11.7 µM) | 25 µg/mL (≈ 23.3 µM) | 12.5 µg/mL (≈ 11.7 µM) | 25 µg/mL (≈ 23.3 µM) | 12.5 µg/mL (≈ 11.7 µM) | 21 mm | 18 mm | MBC ([1]; IFO 40996, 48 h): 12.5 µg/mL (≈ 11.7 µM); MIC ([1]; IFO 40996, 48 h): 6.25 µg/mL (≈ 5.83 µM); MBC ([2]; IFO 9185, 48 h): 12.5 µg/mL (≈ 11.7 µM); MIC ([2]; IFO 9185, 48 h): 6.25 µg/mL (≈ 5.83 µM); MBC ([3]; HIC 6094, 48 h): 12.5 µg/mL (≈ 11.7 µM); MIC ([3]; HIC 6094, 48 h): 6.25 µg/mL (≈ 5.83 µM); zone of inhibition at 300 µg/disc [17]: 11 mm; zone of inhibition at 300 µg/disc [18]: 29 mm; zone of inhibition at 300 µg/disc [19]: 17 mm; zone of inhibition at 300 µg/disc [20]: 17 mm; LC50 [21]: 360 µg/mL (≈ 336 µM); LC50 [22]: 240 µg/mL (≈ 224 µM)
